Test results: patent US7932284B2, “Indole sulfonamide modulators of progesterone receptors” (Eli Lilly and Company, priority 2006, dated 2011)

What was measured:
[1] = target: T1, human PR (progesterone receptor) (Homo sapiens, UniProt P06401); experiment: PR competition binding assay (HEK293 cell lysate); details: 0.29 nM 3H-methyltrienolone, 293-PR lysate
T1 construct: expressed in transfected cells; host or cells: HEK293
T1 sequence (P06401 1-933): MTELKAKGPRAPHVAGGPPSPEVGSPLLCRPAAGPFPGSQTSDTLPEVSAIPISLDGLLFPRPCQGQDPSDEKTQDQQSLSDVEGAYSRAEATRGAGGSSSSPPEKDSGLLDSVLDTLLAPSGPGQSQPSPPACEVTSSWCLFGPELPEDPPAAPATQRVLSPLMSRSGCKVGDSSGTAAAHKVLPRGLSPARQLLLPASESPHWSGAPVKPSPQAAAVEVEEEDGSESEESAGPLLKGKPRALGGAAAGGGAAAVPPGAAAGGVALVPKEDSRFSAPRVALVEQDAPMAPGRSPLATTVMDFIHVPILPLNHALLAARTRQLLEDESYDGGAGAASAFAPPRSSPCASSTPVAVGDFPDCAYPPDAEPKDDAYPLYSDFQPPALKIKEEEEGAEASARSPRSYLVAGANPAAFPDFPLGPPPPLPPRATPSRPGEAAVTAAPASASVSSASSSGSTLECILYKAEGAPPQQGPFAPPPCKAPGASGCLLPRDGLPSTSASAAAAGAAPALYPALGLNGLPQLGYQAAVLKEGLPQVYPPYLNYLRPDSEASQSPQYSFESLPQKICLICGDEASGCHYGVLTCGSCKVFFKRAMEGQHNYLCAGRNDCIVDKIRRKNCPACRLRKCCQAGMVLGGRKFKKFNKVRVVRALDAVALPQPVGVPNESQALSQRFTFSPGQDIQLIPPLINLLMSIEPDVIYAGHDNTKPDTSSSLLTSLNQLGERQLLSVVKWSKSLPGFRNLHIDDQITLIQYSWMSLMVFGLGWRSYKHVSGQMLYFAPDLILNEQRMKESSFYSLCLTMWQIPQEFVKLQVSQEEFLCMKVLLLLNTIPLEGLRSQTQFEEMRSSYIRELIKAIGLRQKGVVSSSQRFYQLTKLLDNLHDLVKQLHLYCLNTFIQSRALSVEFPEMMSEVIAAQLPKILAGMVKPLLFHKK
Protocol: (§1) Cell lysates from HEK293 cells overexpressing human GR (glucocorticoid receptor), AR (androgen receptor), MR (mineralocorticoid receptor) or PR (progesterone receptor) are used for competition binding assays to determine Ki values for compounds of interest. Briefly, competition binding assays are run in a buffer containing 20 mM HEPES, pH 7.6, 0.2 mM EDTA, 75 mM NaCl, 1.5 mM MgCl2, 20% glycerol, 20 mM sodium molybdate, 0.2 mM DTT, 20 ug/ml aprotinin, and 20 ug/ml leupeptin, using either 0.3 nM ^3H-dexamethasone for GR binding, 0.36 nM ^3H-methyltrienolone for AR binding, 0.25 nM ^3H-aldosterone for MR binding, or 0.29 nM ^3H-methyltrienolone for PR binding, and either 20 ug 293-GR lysate, 22 ug 293-AR lysate, 20 ug 293-MR lysate or 40 ug 293-PR lysate per well. Competing compounds are added at various concentrations in half-log increments. Non-specific binding is determined in the presence of 500 nM dexamethasone for GR binding, 500 nM aldosterone for MR binding, or 500 nM methyltrienolone for AR and PR binding. The binding reaction (140 μl) is incubated overnight at 4° C., then 70 μl of cold charcoal-dextran buffer (containing per 50 ml of assay buffer, 0.75 g of charcoal and 0.25 g of dextran) is added to each reaction. Plates are mixed 8 minutes on an orbital shaker at 4° C. Plates are then centrifuged at 3,000 rpm at 4° C. for 10 minutes. An aliquot of 120 μl of the mixture is transferred to another 96-well plate and 175 μl of Wallac Optiphase “Hisafe 3” scintillation fluid is added to each well. Plates are sealed and shaken vigorously on an orbital shaker. After an incubation of 2 hrs, plates are read in a Wallac Microbeta counter. […] The Kd for ^3H-dexamethasone for GR binding, ^3H-methyltrienolone for AR binding, ^3H-aldosterone for MR binding, or ^3H-methyltrienolone for PR binding, is determined by saturation binding. The IC50 values for compounds are converted to Ki using Cheng-Prusoff equation and the Kd determined by saturation binding assay.
More preferably the compounds of the present invention have PR binding value K; of <10 nM.

[2] = target: T2, human GR (glucocorticoid receptor) (Homo sapiens, UniProt P04150); experiment: GR competition binding assay (HEK293 cell lysate); details: 0.3 nM 3H-dexamethasone, 293-GR lysate
T2 construct: expressed in transfected cells; host or cells: HEK293
T2 sequence (P04150 1-777): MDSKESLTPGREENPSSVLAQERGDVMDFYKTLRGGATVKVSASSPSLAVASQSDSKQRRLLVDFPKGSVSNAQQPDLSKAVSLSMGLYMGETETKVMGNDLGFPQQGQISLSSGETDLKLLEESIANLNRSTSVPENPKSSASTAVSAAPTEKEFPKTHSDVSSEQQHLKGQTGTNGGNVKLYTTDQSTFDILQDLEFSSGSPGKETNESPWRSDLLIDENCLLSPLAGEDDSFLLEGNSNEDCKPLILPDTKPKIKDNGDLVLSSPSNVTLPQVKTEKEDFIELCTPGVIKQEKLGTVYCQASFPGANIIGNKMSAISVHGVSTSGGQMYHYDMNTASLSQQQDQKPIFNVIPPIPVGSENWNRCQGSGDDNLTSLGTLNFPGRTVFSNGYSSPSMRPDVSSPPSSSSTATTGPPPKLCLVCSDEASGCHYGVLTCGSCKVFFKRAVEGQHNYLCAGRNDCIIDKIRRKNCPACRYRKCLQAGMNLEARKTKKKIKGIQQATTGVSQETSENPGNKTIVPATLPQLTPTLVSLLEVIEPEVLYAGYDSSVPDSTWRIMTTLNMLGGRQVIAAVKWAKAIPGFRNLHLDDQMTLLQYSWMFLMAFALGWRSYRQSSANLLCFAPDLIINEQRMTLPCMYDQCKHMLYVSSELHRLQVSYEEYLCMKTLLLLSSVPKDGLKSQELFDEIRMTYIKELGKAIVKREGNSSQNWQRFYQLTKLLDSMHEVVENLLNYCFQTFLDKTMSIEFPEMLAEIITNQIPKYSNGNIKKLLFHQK
Protocol: as §1

Compound	Ki [1]	Ki [2]
CC(C)n1cc(-c2ccc3oc(=O)ccc3c2)c2ccc(NS(C)(=O)=O)cc21 [Example 96, N-[1-Isopropyl-3-(2-oxo-2H-chromen-6-yl)-1H-indol-6-yl]-methanesulfonamide]	< 50 nM	> 1000 nM
CC(C)n1cc(-c2ccccc2)c2ccc(NS(C)(=O)=O)cc21 [Example 85, N-(1-Isopropyl-3-phenyl-1H-indol-6-yl)-methanesulfonamide]	< 50 nM	> 1000 nM
CS(=O)(=O)Nc1ccc2c(-c3ccc(C#N)cc3)cn(Cc3ccccc3)c2c1 [Example 72, N-[1-Benzyl-3-(4-cyano-phenyl)-1H-indol-6-yl]-methanesulfonamide]	< 50 nM	50 to 100 nM
CC(C)n1cc(-c2ccc3sccc3c2)c2ccc(NS(C)(=O)=O)cc21 [Example 95, N-(3-Benzo[b]thiophen-5-yl-1-isopropyl-1H-indol-6-yl)-methanesulfonamide]	< 50 nM	> 1000 nM
CC(C)n1cc(-c2ccc(C#N)n2C)c2ccc(NS(C)(=O)=O)cc21 [Example 78, N-[3-(5-Cyano-1-methyl-1H-pyrrol-2-yl)-1-isopropyl-1H-indol-6-yl]-methanesulfonamide]	< 50 nM	100 to 500 nM
CC(C)n1cc(-c2ccc(C#N)cc2)c2ccc(NS(=O)(=O)N3CCOCC3)cc21 [Example 100, Morpholine-4-sulfonic acid [3-(4-cyano-phenyl)-1-isopropyl-1H-indol-6-yl]-amide]	50 to 100 nM	> 1000 nM
CC(C)n1cc(-c2ccc(C=NO)cc2)c2ccc(NS(C)(=O)=O)cc21 [Example 94, N-{3-[4-(Hydroxyimino-methyl)-phenyl]-1-isopropyl-1H-indol-6-yl}-methanesulfonamide]	< 50 nM	> 1000 nM
CC(C)n1cc(-c2ccc(C(N)=O)cc2)c2ccc(NS(C)(=O)=O)cc21 [Example 87, 4-(1-Isopropyl-6-methanesulfonylamino-1H-indol-3-yl)-benzamide]	< 50 nM	> 1000 nM
Cn1cc(-c2ccc(C#N)cc2)c2ccc(NS(=O)(=O)c3cccs3)cc21 [Example 32, Thiophene-2-sulfonic acid [3-(4-cyano-phenyl)-1-methyl-1H-indol-6-yl]-amide]	< 50 nM	> 1000 nM
CSc1ccc(-c2cn(C(C)C)c3cc(NS(C)(=O)=O)ccc23)cc1 [Example 83, N-[1-Isopropyl-3-(4-methylsulfanyl-phenyl)-1H-indol-6-yl]-methanesulfonamide]	< 50 nM	> 1000 nM
CC(C)n1cc(-c2ccc(C#N)cc2)c2ccc(NS(C)(=O)=O)cc21 [Example 28, N-[3-(4-Cyano-phenyl)-1-isopropyl-1H-indol-6-yl]-methanesulfonamide]	< 50 nM	> 1000 nM
CC(C)n1cc(-c2ccc(C#N)c(F)c2)c2ccc(NS(C)(=O)=O)cc21 [Example 38, N-[3-(4-Cyano-3-fluoro-phenyl)-1-isopropyl-1H-indol-6-yl]-methanesulfonamide]	< 50 nM	> 1000 nM

Second part, the molecule after the results:

Ki [1]	Ki [2]	Compound
< 50 nM	> 1000 nM	COc1ccc(-c2cn(C(C)C)c3cc(NS(C)(=O)=O)ccc23)cn1 [Example 88, N-[1-Isopropyl-3-(6-methoxy-pyridin-3-yl)-1H-indol-6-yl]-methanesulfonamide]
< 50 nM	> 1000 nM	CS(=O)(=O)Nc1ccc2c(-c3ccc(C#N)cc3)cn(C3CCCC3)c2c1 [Example 63, N-[3-(4-Cyano-phenyl)-1-cyclopentyl-1H-indol-6-yl]-methanesulfonamide]
< 50 nM	100 to 500 nM	CC(C)Cn1cc(-c2ccc(C#N)cc2)c2ccc(NS(C)(=O)=O)cc21 [Example 29, N-[3-(4-Cyano-phenyl)-1-isobutyl-1H-indol-6-yl]-methanesulfonamide]
< 50 nM	> 1000 nM	Cn1cc(-c2ccc([N+](=O)[O-])cc2)c2ccc(NS(C)(=O)=O)cc21 [Example 30, N-[1-Methyl-3-(4-nitro-phenyl)-1H-indol-6-yl]-methanesulfonamide]
< 50 nM	> 1000 nM	CC(C)n1cc(-c2ccc(C#N)s2)c2ccc(NS(C)(=O)=O)cc21 [Example 43, N-[3-(5-Cyano-thiophen-2-yl)-1-isopropyl-1H-indol-6-yl]-methanesulfonamide]
< 50 nM	> 1000 nM	Cc1ccc(-c2cn(C(C)C)c3cc(NS(C)(=O)=O)ccc23)cc1F [Example 84, N-[3-(3-Fluoro-4-methyl-phenyl)-1-isopropyl-1H-indol-6-yl]-methanesulfonamide]
< 50 nM	> 1000 nM	COc1ccc(-c2cn(C(C)C)c3cc(NS(C)(=O)=O)ccc23)cc1C [Example 86, N-[1-Isopropyl-3-(4-methoxy-3-methyl-phenyl)-1H-indol-6-yl]-methanesulfonamide]
< 50 nM	> 1000 nM	CCOC(=O)c1ccc(-c2cn(C(C)C)c3cc(NS(C)(=O)=O)ccc23)cc1 [Example 74, 4-(1-Isopropyl-6-methanesulfonylamino-1H-indol-3-yl)-benzoic acid ethyl ester]
< 50 nM	100 to 500 nM	CS(=O)(=O)Nc1ccc2c(-c3ccc(C#N)cc3)cn(CC3CCCCC3)c2c1 [Example 77, N-[3-(4-Cyano-phenyl)-1-cyclohexylmethyl-1H-indol-6-yl]-methanesulfonamide]
< 50 nM	> 1000 nM	CC(C)n1cc(-c2ccc(C#N)cc2)c2ccc(NS(=O)(=O)C(F)(F)F)cc21 [Example 98, N-[3-(4-Cyano-phenyl)-1-isopropyl-1H-indol-6-yl]-C,C,C-trifluoro-methanesulfonamide]
< 50 nM	> 1000 nM	Cn1cc(-c2ccc(C#N)cc2)c2ccc(NS(C)(=O)=O)cc21 [Example 25, N-[3-(4-Cyano-phenyl)-1-methyl-1H-indol-6-yl]-methanesulfonamide]
